The source of these data is patent US10071133B2, “Method for destroying exosomes, kit for destroying exosomes, and method for isolating exosomes derived from normal cells” (priority 2015, dated 2018).

Ends that are not written are not given here.

In one experiment the test system is exosome fraction B derived from human breast cancer cells (MDA-MB-231-luc-D3H2LN). The experiment can be described thus: Extraction of microRNA (miR-21) from exosomes derived from human breast cancer cells, real-time PCR. The experiment is classed as biochemical. The note with it: 100 μM peptide, 1×10^11 particles/mL exosomes, 0.4 U/μL RNase inhibitor, 37° C., 24 hours; without peptide 8×10^−14M. How it is done: (§1) A cell suspension of cell line MDA-MB-231-luc-D3H2LN derived from human breast cancer (=MM231-luc-D3H2LN, provided by the National Cancer Center Research Institute) was seeded in a dish containing RPMI 1640 medium (manufactured by Thermo Fisher Scientific Inc.) containing 10% fetal bovine serum. Subsequently, the cell line was grown at 37° C. under the condition that CO2 concentration was set to 5 volume % using a CO2 incubator, and then the medium was replaced with Advanced RPMI 1640 medium (manufactured by Thermo Fisher Scientific Inc.), followed by culturing for 48 hours, and therefore the culture solution containing exosomes was obtained. This culture solution was centrifuged at 2,000 G for 10 minutes to remove the precipitate, followed by centrifugation at 110,000 G for 70 minutes to precipitate the exosomes, and therefore an exosome fraction B was recovered. The recovered exosome fraction B was suspended in a phosphate buffered saline (PBS) and then stored at 4° C. Storage samples were lightly suspended with a vortex mixer (vibration mixer) before use.
(§2) MicroRNA (miR-21 or miR-16) in the reaction solution was subjected to reverse transcription PCR using reverse transcription primers (manufactured by Thermo Fisher Scientific Inc., Taqman microRNA Assays, RT primers, and hsa-mir-21 or hsa-mir-16) and a reverse transcriptase (manufactured by Thermo Fisher Scientific Inc., Taqman microRNA RT kit).
(§3) The reverse transcription PCR solution obtained by the above described method was processed and by comparing the number of cycles on a calibration curve of microRNA using Taqman Assay primer (manufactured by Thermo Fisher Scientific Inc., Taqman microRNA Assays, Taqman Assay primer, and hsa-mir-21 or hsa-mir-16) and Real-Time PCR Master Mixes (manufactured by Thermo Fisher Scientific Inc., TaqMan Universal PCR Master Mix II, w/UNG) with StepOnePlus Real-Time PCR System, MiR-21 or miR-16 was quantified. The calibration curve of microRNA was created using synthetic miR-21 (manufactured by Sigma-Aldrich Co. LLC.) or synthetic miR-16 (manufactured by Sigma-Aldrich Co. LLC.).
10 μL of the exosome fraction was prepared such that PBS contains 1×10^11 particles/mL of the exosome fraction B derived from human breast cancer cells, various antimicrobial peptides shown in the following Table 2 adjusted to 100 μM, and 0.4 U/μL of RNase inhibitor (manufactured by Toyobo Co., Ltd.), followed by incubation by being left to stand at 37° C. for 24 hours.
MicroRNA eluted into the solution was purified and recovered from the incubated solution of Example 10 above and Comparative Example 6 above by the following method.
First, 160 μL of PBS was added to the reaction solution, and then the solution was added to a centrifugal filter (manufactured by Millipore Corporation, Amicon Ultra 0.5 mL, 100K filter) and centrifuged at 14,000 G for 2 minutes. Subsequently, 100 μL of the centrifuged filtrate was recovered and introduced into a 1.5 mL tube. Next, 350 μL of RLT buffer (manufactured by QIAGEN, attached with RNeasy mini kit) and 675 μL of ethanol were added and mixed in the 1.5 mL tube. The obtained mixture was separated into two parts, and each of the separates was added onto a spin column (manufactured by QIAGEN, attached with RNeasy mini kit) followed by centrifugation at 8,000 G for 15 seconds, and the entire amount of the mixture was passed through the spin column. Thereafter, 500 μL of RPE buffer (manufactured by QIAGEN, attached with RNeasy mini kit) was added thereto and centrifuged at 8,000 G for 15 seconds. Furthermore, 500 μL of the RPE buffer was added to the spin column once more and centrifuged at 8,000 G for 15 seconds. Thereafter, the spin column was centrifuged at 14,000 G for 1 minute to remove the residual RPE buffer. Next, 30 μL of RNase free water (manufactured by QIAGEN, attached with RNeasy mini kit) was added to the spin column, left for 1 minute, and then centrifuged at 14,000 G for 1 minute, and the eluate obtained thereby was recovered. […]
With “C-Reactive Protein (CRP) (174-185) (IYLGGPFSPNVL; UniProt P02741 192-203, looked up, fragment)”, the “Destructive activity (concentration of microRNA miR-21 in eluate)” value (shortened to “Destructive activity”) is “D (the concentration of microRNA is less than 10×10^−14M)”.
The same measure, in the same setting: as for Sesquin (KTCENLADTY), the entry is “D (the concentration of microRNA is less than 10×10^−14M)”; as for Macropin 1, “B (the concentration of microRNA is 10×10^−14M to 50×10^−14M)”.
For NRC-07, the “Destructive activity” value is reported as “B (the concentration of microRNA is 10×10^−14M to 50×10^−14M)”.
Still for that read-out and setting: under “Epinecidin-1 (GFIFHIIKGLFHAGKMIHGLV-NH2)” stands “B (the concentration of microRNA is 10×10^−14M to 50×10^−14M)”; under “Dermcidin-1L (SSLLEKGLDGAKKAVGGLGKLGKDAVEDLESVGKGAVHDVKDVLDSVL)”, “D (the concentration of microRNA is less than 10×10^−14M)”; under Caerin 1.1, “A (the concentration of microRNA is 50×10^−14M or more)”.
As for “Hepcidin-20 (ICIFCCGCCHRSKCGMCCKT; ends and bridges not checked; cysteine pairing not given here; UniProt P81172 65-84, looked up)”, the “Destructive activity” value is “D (the concentration of microRNA is less than 10×10^−14M)”.
Same read-out and setting: as for `CCCCCCCCCCCCCCCCCCOP(=O)([O-])OCC[P+](C)(C)C` [Octadecylphosphophosphoniumcholine, reference compound], the entry is “D (the concentration of microRNA is less than 10×10^−14M)”; as for (HHPHG)3, “B (the concentration of microRNA is 10×10^−14M to 50×10^−14M)”.
9R: amino acid sequence RRRRRNWMWC: the “Destructive activity” value is listed as “B (the concentration of microRNA is 10×10^−14M to 50×10^−14M)”.
On the same count and under the same terms, as for NK-2, the entry is “B (the concentration of microRNA is 10×10^−14M to 50×10^−14M)”; as for NRC-03, “B (the concentration of microRNA is 10×10^−14M to 50×10^−14M)”.
Same read-out and setting: under TsAP-2 stands “B (the concentration of microRNA is 10×10^−14M to 50×10^−14M)”; under “Benzalkonium-Cl [1% Benzalkonium-Cl, reference compound]”, “D (the concentration of microRNA is less than 10×10^−14M)”; under Dermaseptin, “B (the concentration of microRNA is 10×10^−14M to 50×10^−14M)”.
As to Histatin-5, the “Destructive activity” value is reported as “B (the concentration of microRNA is 10×10^−14M to 50×10^−14M)”.
Still for that read-out and setting: under Alloferon 1 (HGVSGHGQHGVHG) stands “D (the concentration of microRNA is less than 10×10^−14M)”.
On to (HHPHG) 4 [(HHPHG)4], for which the “Destructive activity” value is given as “B (the concentration of microRNA is 10×10^−14M to 50×10^−14M)”.
Still for that read-out and setting: as for Buforin IIb, the entry is “B (the concentration of microRNA is 10×10^−14M to 50×10^−14M)”.
On the same count and under the same terms, under (HHPHG) 2 (HHPHGHHPHG) [(HHPHG)2] stands “B (the concentration of microRNA is 10×10^−14M to 50×10^−14M)”.
Same read-out and setting: as for Defensin HNP-1, the entry is “B (the concentration of microRNA is 10×10^−14M to 50×10^−14M)”; as for Gageostatin C, “D (the concentration of microRNA is less than 10×10^−14M)”.
Regarding Ascaphin-8, the “Destructive activity” value is “B (the concentration of microRNA is 10×10^−14M to 50×10^−14M)”.
Still for that read-out and setting: under `N=C(N)N` [4M guanidine, guanidine, reference compound] stands “D (the concentration of microRNA is less than 10×10^−14M)”; under “Cecropin B (KWKVFKKIEKMGRNIRNGIVKAGPAIAVLGEAKAL-NH2)”, “B (the concentration of microRNA is 10×10^−14M to 50×10^−14M)”.
For “Magainin I (GIGKFLHSAGKFGKAFVGEIMKS) [Megainin I]”, the “Destructive activity” value is “B (the concentration of microRNA is 10×10^−14M to 50×10^−14M)”.
On the same count and under the same terms, under “(Gln^53)-Connexin 37 (51-58) [(Gln^53)-Connexin 37(51-58)]” stands “D (the concentration of microRNA is less than 10×10^−14M)”; under PTP7, “D (the concentration of microRNA is less than 10×10^−14M)”; under Maculatin 3.1, “B (the concentration of microRNA is 10×10^−14M to 50×10^−14M)”.
Regarding `CCCCCCCCCCCCCCCC[N+](C)(C)C.[Br-]` [1% CTAB, CTAB, reference compound], the “Destructive activity” value is reported as “D (the concentration of microRNA is less than 10×10^−14M)”.
On the same count and under the same terms, under Tuftsin stands “B (the concentration of microRNA is 10×10^−14M to 50×10^−14M)”; under Pardaxin 4, “B (the concentration of microRNA is 10×10^−14M to 50×10^−14M)”.
Same read-out and setting: under “Short α-helical peptides (2) (GIIKKIIKKIIKKIIKKI-NH2)” stands “B (the concentration of microRNA is 10×10^−14M to 50×10^−14M)”.

The subject of a further experiment is exosome fraction B derived from human breast cancer cells versus exosome fraction derived from human mammary gland cells (MCF-10A, normal cells). The experiment can be described thus: Selectivity: miR-16 ratio, breast cancer exosomes versus mammary gland normal cell exosomes (Formula 1). The experiment is classed as biochemical. The settings on record: Formula 1, cancer/normal (MCF-10A); 100 μM peptide, 37° C., 24 hours. How it is done:
as §1
A cell suspension of cell line MCF 10A derived from human mammary epithelial cells (provided by the National Cancer Center Research Institute) was seeded in a dish containing Mammary Epithelium Cell Basal Medium (manufactured by Lonza). Subsequently, the cell line was grown at 37° C. under the condition that CO2 concentration was set to 5 volume % using a CO2 incubator, and then the medium was replaced with a fresh medium, followed by culturing for 48 hours, and the culture solution containing exosomes was obtained. This culture solution was centrifuged at 2,000 G for 10 minutes to remove the precipitate, followed by centrifugation at 110,000 G for 70 minutes to precipitate the exosomes, and an exosome fraction was recovered. The recovered exosome fraction was suspended in a phosphate buffered saline (PBS) and then stored at 4° C. Storage samples were lightly suspended with a vortex mixer (vibration mixer) before use.
as §2, §3
10 μL of the exosome fraction was prepared such that PBS contains 1×10^11 particles/mL of the exosome fraction B derived from human breast cancer cells, various antimicrobial peptides shown in the following Table 4 adjusted to 100 μM, and 0.4 U/μL of RNase inhibitor (manufactured by Toyobo Co., Ltd.), followed by incubation by being left to stand at 37° C. for 24 hours.
Thereafter, the eluted MicroRNA (miR-16) was purified and recovered from the incubated solution by the same method as the above described method for extraction from the incubated solution of Examples 10 and 11 above and Comparative Examples 6 and 7 above. […]
For the compound Caerin 1.1, the mir-16 ratio is reported as 27.

The same experiment, now with this note: from miR-16 ratio versus Comparative Example 8; breast cancer vs MCF-10A exosomes.
With Caerin 1.1, the Selectivity entry was “B (evaluated as “B” in a case where the calculated miR-16 value was higher than the miR-16 ratio of Comparative Example 8)”.
